Data on 89 compounds can be found in a melting point compilation (Tetko et al.; mined from patent text by program, amines drawn as free bases though some values may be those of a salt).

Molecules are shown by their SMILES.

On to `Cn1cccc1C(=O)C(C#N)C(=O)Nc1ccc(O)cc1` (centres undefined), for which the melting point (as a rule, the temperature of the solid-liquid transition) was in the range of 182 to 184 °C. As for `CCOC(=O)c1cn(-c2nc[nH]n2)cn1`, the figure is 220 to 222 °C; as for `C=CC(=O)OCCOc1ccc(C(=O)C(C)(C)OC(=O)C=C)cc1`, 71 °C. Compound `Cc1cccc(NC(=O)Cn2c3c(c4cc(Cl)c(Cl)cc42)CCN(C(=O)OC(C)(C)C)CC3)c1C` had a melting point of 186 to 188 °C. On to `CC(=O)Oc1ccc(C(Cl)=CC=O)cc1[N+](=O)[O-]`, for which the melting point lay in the range of 128 to 130 °C. For `Cc1nc(C(C)(O)c2cccs2)sc1C` (centres undefined), the melting point lay in the range of 129 to 130 °C. As for `O=C(O)CCc1ccc(SCc2coc(/C=C/c3ccccc3)n2)cc1`, the melting point is 120 to 121 °C. `Cc1[nH]c(C#N)c(C)c1-c1ccnc(Nc2cccc([N+](=O)[O-])c2)n1` yielded a melting point of 258 to 259 °C.

Regarding `CCCOc1cc(CC)c(C(=O)OC)c(C(=O)O)c1`, the melting point is 99 to 100 °C. For `COc1ccc(Sc2ccccc2C(C)C)cc1`, the melting point lay in the range of 63 to 65 °C. `CCc1ccc(CC(C)(C)NC(C)=O)cc1` registered a melting point of 90 to 92 °C. Regarding `COC(=O)C1=C(C)NC(C)=C(C(=O)OC)C1c1cccc(NC(=O)C(F)(F)F)c1`, the melting point lay within 231 to 232 °C.

`Cc1ccc2cccc(OCc3c(Cl)ccc(N(C)C(=O)CNC(=O)C=Cc4ccc(C(=O)O)cc4)c3Cl)c2n1` displayed a melting point of 238 to 241 °C. Compound `CCOC(=O)c1oc2cccc(CCO)c2c1C` displayed a melting point of 88 to 90 °C. As for `CC(=O)Nc1nc2c(NC(=O)c3ccc4cc(Br)ccc4c3)cccc2s1`, the figure is 242 °C; as for `CCc1ccc2sc3cc(-c4nnn[nH]4)ccc3c(=O)c2c1`, 247 °C; as for `COc1ccccc1SC(CCc1ccc(Cl)cc1)Cn1ccnc1` (centres undefined), 105 to 106 °C.

In turn, `CC(C)c1cc(-c2ccccc2)nc(-c2ccc(F)cc2)c1C=C(Br)Br` showed a melting point of 124 to 126 °C. The figure for `COc1ccc(C=CC(=O)NO)cc1OC` is 183 to 185 °C. Consider `CSc1nc(N)nc(-c2ccccc2)c1-c1ccc(=O)n(C(C)C)n1`, for which the melting point was 221 to 222 °C. The figure for `c1cc(Cn2ncc3c(N4CCNCC4)ncnc32)ccn1` is 121 °C; for `O=C1CN2Cc3cccc(OCCCC(=O)N(CCO)CCCCC4CCCCC4)c3N=C2N1` it is 110 to 111 °C. As for `Nc1ccc2c(c1)COC2=O`, the melting point was 177 to 189 °C.

Compound `COc1cccc(/C=C/C(=O)/C=C/c2cccc(OC)c2OC)c1OC` came in with a melting point of 106 to 108 °C.

Compound `CC(C)(C)C(NC(=O)CCc1cccnc1)Nc1c(Nc2cccnc2Cl)c(=O)c1=O` (centres undefined) returned a melting point of 179 to 180 °C. In turn, `Nc1nc(=O)n(C2CC(O)C(CO)O2)cc1F` (centres undefined) displayed a melting point of 199 to 201 °C.

On to `CC1(C)CC(O)CC(C)(C)N1CC(O)c1ccccc1` (centres undefined), for which the melting point is 123 °C.

Regarding `CCCCCCCCc1ccc(N(c2ccc(CCCCCCCC)cc2)C2(c3ccc(N(C)C)cc3)OC(=O)c3cc(N(C)C)ccc32)cc1` (centres undefined), the melting point was in the range of 208 to 210 °C.

`CCN=C(c1ccc(OC)c(OC)c1)N1CCCc2cc(C3=NNC(=O)SC3C)ccc21` (centres undefined): the melting point was determined as 208 °C. The figure for `CC(C)c1nn(-c2ccc(C(F)(F)F)cn2)cc1CCCOc1c(Br)cccc1CC(=O)O` is 146 to 147 °C. As for `O=C(O)CN1C(=O)C(=Cc2cccc3ccccc23)SC1=S`, the melting point fell in the range of 241 to 244 °C. `CCCCCCCCCCCCCCCCCCNC(=O)NCCCN` registered a melting point of 116 to 140 °C. For the compound `Cn1ncnc1COc1nc2c(-c3ccccc3)nncn2c1-c1cccc(Cl)c1`, the melting point was in the range of 80 to 84 °C.

Compound `COC(=O)CCCC#Cc1cc(Cl)ccc1NS(=O)(=O)c1cc(OC)ccc1OC` registered a melting point of 115 to 117 °C. Turning to `Cc1nc(-c2c(Cl)cc(O)cc2Cl)oc1C`, the melting point lay within 228 to 229 °C.

Compound `CC1Cc2cc3c(cc2C1)CC(C(=N)NO)C3` came in with a melting point of 194 to 195 °C. `O=C(Nc1cccc2[nH]ccc12)c1cc([N+](=O)[O-])ccc1O` registered a melting point above 260 °C. The figure for `CC(=O)OC1CN(c2c(F)cc3c(=O)c(C(=O)O)cn(C4CC4)c3c2F)C1` is 259 to 262 °C; for `CCN(CC)CCOc1cccc2c1c1cccc(Cl)c1n2Cc1ccccc1` it is 73.5 to 75 °C; for `CC(C)C(C(=O)O)n1sc2ccccc2c1=O` (centres undefined) it is 166 to 168 °C. The figure for `COC[C@@H]1C(=O)Nc2ccc(C(F)(F)F)cc2C[C@@H]1c1ccc(OC)cc1` (relative stereo) is 220 to 228 °C; for `COC(=O)c1ccc(OCC2CC(=O)N(c3ccc(OCCn4ccnc4)cc3)C2)cc1` (centres undefined) it is 135 to 138 °C. In turn, `CC(C)(SCc1ccccn1)C(NS(=O)(=O)c1ccc(Oc2ccc(-c3ccoc3)cc2)cc1)C(=O)O` (centres undefined) registered a melting point of 185 to 189 °C.

Compound `Cc1ccc2ccc3ccccc3c(=O)c2c1` gave a melting point of 81 to 83 °C. The figure for `Cc1nc2ccccc2n1C1CCNCC1` is 130 to 132 °C. In turn, `CC(=O)N1CCC(C)(C)C(=O)c2ccc(Cl)cc2CCC1=O` registered a melting point of 113 to 115 °C.

In the case of `CCOC(=O)c1oc(-c2ccc(C)cc2)cc(=O)c1Br`, the melting point was found to be 144 °C. The compound `COC(=O)c1c(OC)cc(C(F)(F)F)nc1C(F)(F)F` gave a melting point of 101 to 103 °C. For the compound `C=CCCCCCCCCC(=O)N1CC[C@H]2[C@H]1[C@@H](CCC)C(=O)N2S(C)(=O)=O` (relative stereo), the melting point lay within 62 to 64.6 °C. Take `Cc1ccc(C(=O)CCCCC(=O)O)cc1`: the melting point was 147 to 148 °C. `CC(C)(C)NCCOc1ccccc1CCCc1cccc2[nH]ccc12` displayed a melting point of 114 °C. On to `CN(C(=O)C(Cl)(Cl)Cl)c1nc(C(Cl)(Cl)Cl)ns1`, for which the melting point worked out at 223 °C. For the compound `CSc1ccc(-c2cc(C(F)(F)F)nn2-c2ccc(C#N)cc2)cc1`, the melting point lay within 145 to 147 °C. In the case of `COc1cc2c(=O)c(S(=O)(=O)N(C)C)cn(C)c2cc1C`, the melting point lay within 232 to 233 °C. The figure for `O=[N+]([O-])c1ccc(-c2nc(-c3cccs3)no2)cc1` is 169 to 171 °C. `CCCc1c(OCc2ccc(C(=O)OC)cc2)ccc(C(C)=O)c1O`: the melting point was 99.5 to 100 °C. The compound `O=C1Nc2sccc2C(=O)N2CC[C@@H]12` came in with a melting point of 272 to 274 °C. `Cn1cncc1C(c1ccc(Cl)cc1)c1ccc(N)c(C(=O)c2cccc(Cl)c2)c1` (centres undefined) had a melting point of 179 °C. Turning to `O=C(Nc1ccc(-c2cnc(-c3ccc(NC(=O)C4CCCCC4)cc3)[nH]2)cc1)C1CCCCCC1`, the melting point was 192 to 194 °C. In turn, `COc1cc(C)cc(OC)c1N(CCC(C)C)C(=O)CNC(=O)OC(C)(C)C` registered a melting point of 132 °C. `CC(C)n1ncc2c(N(C)N)ncnc21`: the melting point lay within 105 to 108 °C. For `FC(F)(F)c1cccc(N(c2ccccc2)c2ccc(-c3ccc(N(c4ccccc4)c4cccc(C(F)(F)F)c4)cc3)cc2)c1`, the melting point came to 150 °C.

As for `COC(=O)c1ccccc1NC(=O)c1cnc(S(C)(=O)=O)nc1`, the melting point was 187 to 189 °C. The figure for `O=[N+]([O-])c1cccc2cc(O)c(O)cc12` is 199 to 201 °C; for `O=C(N[C@H](Cc1ccc(C(F)(F)F)cc1)[C@@H](O)c1ccc(F)cc1)c1cccc2cccnc12` (racemic) it is 83 to 84 °C. For the compound `COc1ccc(C(=O)c2c(-c3ccc(OC)cc3)oc3cc(OC)ccc23)cc1`, the melting point fell in the range of 106 to 109 °C. Regarding `COC(=O)c1cc(N)cc(C(F)(F)F)n1`, the melting point worked out at 114 °C. The compound `COc1ccc(C2=NN(c3ccc4c(c3)COC4=O)C(=O)[C@H]3CC=CC[C@@H]23)cc1Cl` (relative stereo) returned a melting point of 212 to 213 °C. The compound `COCCN1C(=O)C(C)(C)C(=O)Nc2ccc(C#N)cc21` had a melting point of 247 to 248 °C. In turn, `Nc1nc2ccccc2c2c1nc(CCC1CCCC1)n2CCOc1ccccc1` displayed a melting point of 165 °C. For the compound `O=C(NCCO)C1=CNc2cccnc2S1`, the melting point fell in the range of 192 to 195 °C.

For the compound `CC(C)c1cccc(C(C)C)c1NC(=O)CNC(c1ccccc1)c1ccc(Br)cc1` (centres undefined), the melting point is 154 to 155 °C.

Regarding `CCOc1c([C@@H]2C[C@H]2C=O)cc(C(C)(C)C)cc1C(C)(C)C` (racemic), the melting point fell in the range of 123 to 126 °C. Turning to `O=C(C(=O)c1ccc(F)cc1Br)c1ccccc1`, the melting point was in the range of 62 to 66 °C. The compound `NS(=O)(=O)c1c(Cl)ccc(NC(=O)Nc2cccc(Cl)c2Cl)c1O` returned a melting point of 241 to 242 °C. As for `CC(C)(C)Nc1cc(N2CCCNCC2)nc(NC(C)(C)C)n1`, the figure is 127 to 132 °C; as for `Cc1c(N2C[C@@H](N)[C@@H](C)C2)c(F)c(N)c2c(=O)c(C(=O)O)cn(C3CC3)c12` (relative stereo), 214 to 215 °C; as for `COc1cccc(Oc2ncccc2C=O)c1`, 76 to 78 °C. Regarding `COCC(=O)Nc1ccc2ncnc(Nc3cccc(Br)c3)c2c1`, the melting point fell in the range of 190 to 191 °C. Turning to `O=[N+]([O-])c1sc(-n2cccc2)nc1Cl`, the melting point was in the range of 138 to 139 °C. In the case of `CC(C)(C)CNS(=O)(=O)c1cccc([N+](=O)[O-])c1`, the melting point came out at 99 °C. With `CC1NC(=Nc2ccccc2N2CCOCC2)N(CCO)C1C` (centres undefined), the melting point fell in the range of 108 to 109 °C. As for `CCCCC1OC(=O)c2cc(NC(N)=O)ccc21` (centres undefined), the melting point was in the range of 196 to 199 °C. `NCC1CCCC(CNc2ncc3ncnc(Nc4ccc(F)c(Cl)c4)c3n2)C1` (centres undefined) yielded a melting point of 145 to 148 °C. In turn, `O=S(c1ccc(Cl)cc1)c1cc(C(F)(F)F)[nH]c1-c1ccc(Cl)cc1` (centres undefined) registered a melting point of 174 to 176 °C. In turn, `O=[N+]([O-])c1ccc(C=Cc2nc(Nc3ccc(O)cc3)c3ccccc3n2)o1` came in with a melting point of 250 to 260 °C. The figure for `CCCCCS(=O)(=O)NC(=O)/C=C/c1cc(OC(C)C)nn1Cc1ccc(Cl)cc1Cl` is 109 to 112 °C; for `CC(C)(C)OC(=O)N[C@@H](Cc1ccc(Cl)cc1)C(=O)NC1CCC(Nc2cccc3c2C(=O)c2ccccc2C3=O)CC1` (some centres undefined) it is 190 °C; for `CC(C)(C)C(O)C(C(CC#N)c1ccccc1)n1ccnc1` (centres undefined) it is 212 to 228 °C.
